Columns and labels:
[1] = target: Angiopoietin-1 receptor (Homo sapiens) (UniProt Q02763); assay: TEK Invitrogen selectivity data (BI); conditions: Compound concentration 3.0 uM
[2] = target: T1, Beta-adrenergic receptor kinase 1 (Homo sapiens) (UniProt P25098); assay: ADRBK1 Invitrogen selectivity data (BI); conditions: Compound concentration 3.0 uM
T1 sequence (whole entry): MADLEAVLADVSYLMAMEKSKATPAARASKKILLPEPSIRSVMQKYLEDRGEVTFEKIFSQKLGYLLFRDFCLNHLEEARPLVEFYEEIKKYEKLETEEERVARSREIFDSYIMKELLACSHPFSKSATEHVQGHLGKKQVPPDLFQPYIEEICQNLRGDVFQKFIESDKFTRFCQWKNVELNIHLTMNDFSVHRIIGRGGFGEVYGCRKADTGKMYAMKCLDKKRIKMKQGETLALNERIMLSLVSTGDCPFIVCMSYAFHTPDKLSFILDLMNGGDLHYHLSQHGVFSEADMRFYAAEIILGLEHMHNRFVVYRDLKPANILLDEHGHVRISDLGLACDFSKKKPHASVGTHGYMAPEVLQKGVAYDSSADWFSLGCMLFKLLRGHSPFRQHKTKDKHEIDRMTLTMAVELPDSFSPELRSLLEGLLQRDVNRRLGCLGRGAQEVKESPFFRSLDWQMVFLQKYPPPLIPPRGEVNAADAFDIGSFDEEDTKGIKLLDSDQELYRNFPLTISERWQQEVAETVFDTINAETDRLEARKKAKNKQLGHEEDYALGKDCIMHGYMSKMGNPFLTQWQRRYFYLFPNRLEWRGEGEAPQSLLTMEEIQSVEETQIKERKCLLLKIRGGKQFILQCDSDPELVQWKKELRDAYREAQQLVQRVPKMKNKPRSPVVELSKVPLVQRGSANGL

[3] = target: NT-3 growth factor receptor (Homo sapiens) (UniProt Q16288); assay: NTRK3 Invitrogen selectivity data (BI); conditions: Compound concentration 3.0 uM
[4] = target: Mitogen-activated protein kinase 1 (Homo sapiens) (UniProt P28482); assay: MAPK1 Invitrogen selectivity data (BI); conditions: Compound concentration 3.0 uM
[5] = target: T2, Serine/threonine-protein kinase 17A (Homo sapiens) (UniProt Q9UEE5); assay: STK17A Invitrogen selectivity data (BI); conditions: Compound concentration 3.0 uM
T2 sequence (whole entry): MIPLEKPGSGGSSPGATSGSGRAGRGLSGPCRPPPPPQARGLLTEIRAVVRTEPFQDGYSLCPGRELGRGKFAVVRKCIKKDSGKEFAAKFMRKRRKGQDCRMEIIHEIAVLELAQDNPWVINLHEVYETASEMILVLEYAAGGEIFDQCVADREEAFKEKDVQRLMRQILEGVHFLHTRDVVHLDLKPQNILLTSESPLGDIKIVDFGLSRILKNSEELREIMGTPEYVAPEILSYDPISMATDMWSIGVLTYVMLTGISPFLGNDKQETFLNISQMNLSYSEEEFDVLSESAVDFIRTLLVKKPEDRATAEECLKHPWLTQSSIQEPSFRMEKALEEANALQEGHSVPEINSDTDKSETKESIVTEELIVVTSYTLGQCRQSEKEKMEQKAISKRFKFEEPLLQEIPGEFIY

[6] = target: T3, cGMP-dependent protein kinase 1 (Homo sapiens) (UniProt Q13976); assay: PRKG1 Invitrogen selectivity data (BI); conditions: Compound concentration 3.0 uM
T3 sequence (whole entry): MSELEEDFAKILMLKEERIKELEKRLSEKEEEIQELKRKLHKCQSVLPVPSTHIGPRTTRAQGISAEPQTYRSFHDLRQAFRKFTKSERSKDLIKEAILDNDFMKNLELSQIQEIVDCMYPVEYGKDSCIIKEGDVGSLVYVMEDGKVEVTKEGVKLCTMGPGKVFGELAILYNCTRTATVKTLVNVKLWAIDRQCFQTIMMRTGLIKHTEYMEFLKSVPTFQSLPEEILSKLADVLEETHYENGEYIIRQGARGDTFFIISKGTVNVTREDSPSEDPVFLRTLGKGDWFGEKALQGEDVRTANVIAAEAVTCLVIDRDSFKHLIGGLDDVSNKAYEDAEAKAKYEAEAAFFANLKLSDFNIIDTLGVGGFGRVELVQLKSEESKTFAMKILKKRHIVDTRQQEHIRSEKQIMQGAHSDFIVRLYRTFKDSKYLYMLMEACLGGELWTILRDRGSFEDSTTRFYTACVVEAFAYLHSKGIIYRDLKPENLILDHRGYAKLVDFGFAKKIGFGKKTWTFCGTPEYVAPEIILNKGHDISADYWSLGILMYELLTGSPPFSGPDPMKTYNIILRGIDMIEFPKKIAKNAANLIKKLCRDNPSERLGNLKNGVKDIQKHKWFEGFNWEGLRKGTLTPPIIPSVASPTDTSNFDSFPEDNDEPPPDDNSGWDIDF

[7] = target: T4, D(4) dopamine receptor (Homo sapiens) (UniProt P21917); assay: D4.2/H Eurofins-Panlabs selectivity data (BI); conditions: Compound concentration 10.0 uM
T4 sequence (whole entry): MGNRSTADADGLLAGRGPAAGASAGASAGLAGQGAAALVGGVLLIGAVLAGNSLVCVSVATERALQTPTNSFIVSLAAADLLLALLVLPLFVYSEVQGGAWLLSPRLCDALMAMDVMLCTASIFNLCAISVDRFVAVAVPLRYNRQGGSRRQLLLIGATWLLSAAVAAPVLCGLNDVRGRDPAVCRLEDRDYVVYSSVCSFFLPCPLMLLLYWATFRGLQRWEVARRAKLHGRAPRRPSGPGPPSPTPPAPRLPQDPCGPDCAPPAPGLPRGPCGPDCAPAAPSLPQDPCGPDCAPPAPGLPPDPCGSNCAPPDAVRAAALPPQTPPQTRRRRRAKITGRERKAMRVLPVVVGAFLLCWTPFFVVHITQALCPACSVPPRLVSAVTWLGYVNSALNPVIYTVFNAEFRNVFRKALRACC

[8] = system: Platelet-derived growth factor receptor alpha (Homo sapiens), P16234 [V561D]; assay: PDGFRA V561D Invitrogen selectivity data (BI); conditions: Compound concentration 3.0 uM
[9] = target: Beta-2 adrenergic receptor (Homo sapiens) (UniProt P07550); assay: BETA2/HUM Cerep selectivity data (BI); conditions: filed as antagonist, Compound concentration 20.0 uM
[10] = target: AMPK alpha2/beta1/gamma1 (Homo sapiens) (UniProt P54646+P54619+Q9Y478); assay: AMPK A2B1G1 Invitrogen selectivity data (BI); assay type: protein-complex assay; conditions: Compound concentration 3.0 uM

Measured: residual activity

Chain of Beta-2 adrenergic receptor (Homo sapiens) (P07550 whole entry, looked up): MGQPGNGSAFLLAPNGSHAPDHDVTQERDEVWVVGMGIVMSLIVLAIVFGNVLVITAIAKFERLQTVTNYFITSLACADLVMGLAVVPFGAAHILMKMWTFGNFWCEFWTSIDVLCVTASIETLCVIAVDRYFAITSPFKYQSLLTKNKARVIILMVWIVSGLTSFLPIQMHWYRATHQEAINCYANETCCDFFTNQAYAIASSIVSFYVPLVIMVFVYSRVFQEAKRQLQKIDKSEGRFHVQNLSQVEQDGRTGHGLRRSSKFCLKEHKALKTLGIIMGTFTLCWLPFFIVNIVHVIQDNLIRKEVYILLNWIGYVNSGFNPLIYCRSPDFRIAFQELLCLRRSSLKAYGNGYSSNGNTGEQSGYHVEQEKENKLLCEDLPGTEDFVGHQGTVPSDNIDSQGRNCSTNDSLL
Chain of Platelet-derived growth factor receptor alpha (Homo sapiens), P16234 [V561D] (P16234 whole entry V561D): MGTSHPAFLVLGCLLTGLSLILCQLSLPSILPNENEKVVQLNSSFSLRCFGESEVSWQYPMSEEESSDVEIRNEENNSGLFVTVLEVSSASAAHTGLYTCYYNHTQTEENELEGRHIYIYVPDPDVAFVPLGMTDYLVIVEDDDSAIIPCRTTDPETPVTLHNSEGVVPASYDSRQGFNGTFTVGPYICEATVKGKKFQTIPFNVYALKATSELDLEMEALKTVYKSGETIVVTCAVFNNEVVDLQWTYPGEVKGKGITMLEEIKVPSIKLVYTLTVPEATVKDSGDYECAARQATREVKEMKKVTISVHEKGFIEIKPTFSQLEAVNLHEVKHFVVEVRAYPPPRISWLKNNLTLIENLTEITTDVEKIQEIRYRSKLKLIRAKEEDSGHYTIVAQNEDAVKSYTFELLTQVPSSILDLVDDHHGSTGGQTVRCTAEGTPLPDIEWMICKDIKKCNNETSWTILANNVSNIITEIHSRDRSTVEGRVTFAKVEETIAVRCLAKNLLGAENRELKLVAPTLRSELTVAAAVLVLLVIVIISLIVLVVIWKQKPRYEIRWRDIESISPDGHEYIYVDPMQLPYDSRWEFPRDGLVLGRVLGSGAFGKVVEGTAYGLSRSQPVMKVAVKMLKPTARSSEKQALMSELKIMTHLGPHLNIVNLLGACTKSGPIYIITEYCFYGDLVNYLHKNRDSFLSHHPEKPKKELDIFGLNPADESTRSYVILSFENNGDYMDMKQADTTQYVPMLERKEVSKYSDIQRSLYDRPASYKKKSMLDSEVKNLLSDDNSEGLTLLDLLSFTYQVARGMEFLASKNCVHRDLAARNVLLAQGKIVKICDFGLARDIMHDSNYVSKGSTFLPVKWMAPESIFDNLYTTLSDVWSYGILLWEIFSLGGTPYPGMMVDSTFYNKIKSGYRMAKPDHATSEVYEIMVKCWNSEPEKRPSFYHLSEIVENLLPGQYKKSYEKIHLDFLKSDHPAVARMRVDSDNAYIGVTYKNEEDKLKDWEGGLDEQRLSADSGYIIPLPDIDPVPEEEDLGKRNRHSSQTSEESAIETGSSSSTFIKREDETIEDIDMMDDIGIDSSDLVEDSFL
Chain of Mitogen-activated protein kinase 1 (Homo sapiens) (P28482 whole entry): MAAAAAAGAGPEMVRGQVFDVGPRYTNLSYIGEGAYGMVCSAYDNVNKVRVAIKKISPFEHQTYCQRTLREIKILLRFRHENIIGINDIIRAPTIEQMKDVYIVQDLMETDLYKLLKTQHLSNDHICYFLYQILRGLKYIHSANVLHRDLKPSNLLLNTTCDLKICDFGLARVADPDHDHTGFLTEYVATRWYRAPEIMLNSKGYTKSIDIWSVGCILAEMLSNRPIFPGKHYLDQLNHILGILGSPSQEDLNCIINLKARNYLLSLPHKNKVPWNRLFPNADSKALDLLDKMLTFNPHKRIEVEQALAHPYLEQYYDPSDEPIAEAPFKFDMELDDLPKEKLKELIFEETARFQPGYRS
Chain of Angiopoietin-1 receptor (Homo sapiens) (Q02763 whole entry): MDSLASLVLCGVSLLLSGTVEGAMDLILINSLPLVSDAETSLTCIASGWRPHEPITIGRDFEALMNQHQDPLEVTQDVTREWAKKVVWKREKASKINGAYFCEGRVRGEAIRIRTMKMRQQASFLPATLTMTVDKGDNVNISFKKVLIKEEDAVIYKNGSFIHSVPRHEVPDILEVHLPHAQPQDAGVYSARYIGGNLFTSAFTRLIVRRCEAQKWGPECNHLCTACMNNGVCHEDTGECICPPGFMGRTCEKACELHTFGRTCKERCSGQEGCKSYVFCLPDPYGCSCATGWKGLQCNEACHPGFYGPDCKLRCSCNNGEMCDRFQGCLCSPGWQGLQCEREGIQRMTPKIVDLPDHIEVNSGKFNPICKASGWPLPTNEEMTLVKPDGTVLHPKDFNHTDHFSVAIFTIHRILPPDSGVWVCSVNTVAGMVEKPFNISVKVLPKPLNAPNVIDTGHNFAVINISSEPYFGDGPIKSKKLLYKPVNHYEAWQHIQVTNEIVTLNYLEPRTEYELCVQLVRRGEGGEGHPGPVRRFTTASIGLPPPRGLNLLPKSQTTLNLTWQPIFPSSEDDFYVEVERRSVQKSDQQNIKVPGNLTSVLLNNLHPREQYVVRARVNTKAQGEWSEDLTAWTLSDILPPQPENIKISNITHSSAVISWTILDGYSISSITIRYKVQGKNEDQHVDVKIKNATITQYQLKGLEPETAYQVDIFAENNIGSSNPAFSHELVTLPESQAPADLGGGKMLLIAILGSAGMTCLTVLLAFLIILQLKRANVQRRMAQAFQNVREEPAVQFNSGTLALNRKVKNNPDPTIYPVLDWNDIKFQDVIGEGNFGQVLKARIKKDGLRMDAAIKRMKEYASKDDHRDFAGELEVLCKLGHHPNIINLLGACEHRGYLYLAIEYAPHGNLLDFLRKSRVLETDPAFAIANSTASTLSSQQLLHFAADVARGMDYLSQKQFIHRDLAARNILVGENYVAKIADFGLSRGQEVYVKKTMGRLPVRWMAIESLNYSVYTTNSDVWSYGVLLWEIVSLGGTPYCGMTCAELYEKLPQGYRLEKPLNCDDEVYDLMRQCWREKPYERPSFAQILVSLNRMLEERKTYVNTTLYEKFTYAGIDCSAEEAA
Chain of AMPK alpha2/beta1/gamma1 (Homo sapiens) (P54619 whole entry partner): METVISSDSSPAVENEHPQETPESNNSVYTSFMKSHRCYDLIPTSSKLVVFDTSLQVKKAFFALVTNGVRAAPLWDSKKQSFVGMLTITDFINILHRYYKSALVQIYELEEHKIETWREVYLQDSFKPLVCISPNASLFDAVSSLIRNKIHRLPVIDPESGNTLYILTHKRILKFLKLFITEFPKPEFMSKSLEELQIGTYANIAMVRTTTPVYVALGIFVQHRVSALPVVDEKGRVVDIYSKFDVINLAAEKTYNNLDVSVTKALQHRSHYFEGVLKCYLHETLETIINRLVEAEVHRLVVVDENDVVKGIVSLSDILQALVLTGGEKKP
Chain of AMPK alpha2/beta1/gamma1 (Homo sapiens) (P54646 whole entry): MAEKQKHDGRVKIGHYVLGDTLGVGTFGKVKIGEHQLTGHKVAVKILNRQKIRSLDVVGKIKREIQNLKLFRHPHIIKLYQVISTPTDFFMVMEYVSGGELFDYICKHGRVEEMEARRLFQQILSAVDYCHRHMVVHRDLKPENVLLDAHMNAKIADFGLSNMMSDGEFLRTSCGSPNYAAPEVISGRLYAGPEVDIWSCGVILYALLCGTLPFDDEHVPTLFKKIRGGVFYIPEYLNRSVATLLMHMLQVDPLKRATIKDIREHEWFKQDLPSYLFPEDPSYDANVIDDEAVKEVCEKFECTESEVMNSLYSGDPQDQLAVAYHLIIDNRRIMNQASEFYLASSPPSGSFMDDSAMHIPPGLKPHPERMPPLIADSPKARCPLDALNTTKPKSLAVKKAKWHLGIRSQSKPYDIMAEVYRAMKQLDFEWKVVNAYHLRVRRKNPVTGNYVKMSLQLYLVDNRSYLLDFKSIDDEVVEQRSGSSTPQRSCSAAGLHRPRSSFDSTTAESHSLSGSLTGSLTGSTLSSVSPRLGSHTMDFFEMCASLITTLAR
Chain of AMPK alpha2/beta1/gamma1 (Homo sapiens) (Q9Y478 2-270 partner limits assumed): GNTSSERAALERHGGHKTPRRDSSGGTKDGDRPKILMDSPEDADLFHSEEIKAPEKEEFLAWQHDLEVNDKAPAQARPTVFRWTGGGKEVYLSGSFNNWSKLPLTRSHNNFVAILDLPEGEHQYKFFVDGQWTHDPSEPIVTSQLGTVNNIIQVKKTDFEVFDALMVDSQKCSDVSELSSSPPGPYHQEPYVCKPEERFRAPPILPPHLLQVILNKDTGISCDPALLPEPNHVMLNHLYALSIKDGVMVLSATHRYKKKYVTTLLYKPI
Chain of NT-3 growth factor receptor (Homo sapiens) (Q16288 32-839 limits assumed): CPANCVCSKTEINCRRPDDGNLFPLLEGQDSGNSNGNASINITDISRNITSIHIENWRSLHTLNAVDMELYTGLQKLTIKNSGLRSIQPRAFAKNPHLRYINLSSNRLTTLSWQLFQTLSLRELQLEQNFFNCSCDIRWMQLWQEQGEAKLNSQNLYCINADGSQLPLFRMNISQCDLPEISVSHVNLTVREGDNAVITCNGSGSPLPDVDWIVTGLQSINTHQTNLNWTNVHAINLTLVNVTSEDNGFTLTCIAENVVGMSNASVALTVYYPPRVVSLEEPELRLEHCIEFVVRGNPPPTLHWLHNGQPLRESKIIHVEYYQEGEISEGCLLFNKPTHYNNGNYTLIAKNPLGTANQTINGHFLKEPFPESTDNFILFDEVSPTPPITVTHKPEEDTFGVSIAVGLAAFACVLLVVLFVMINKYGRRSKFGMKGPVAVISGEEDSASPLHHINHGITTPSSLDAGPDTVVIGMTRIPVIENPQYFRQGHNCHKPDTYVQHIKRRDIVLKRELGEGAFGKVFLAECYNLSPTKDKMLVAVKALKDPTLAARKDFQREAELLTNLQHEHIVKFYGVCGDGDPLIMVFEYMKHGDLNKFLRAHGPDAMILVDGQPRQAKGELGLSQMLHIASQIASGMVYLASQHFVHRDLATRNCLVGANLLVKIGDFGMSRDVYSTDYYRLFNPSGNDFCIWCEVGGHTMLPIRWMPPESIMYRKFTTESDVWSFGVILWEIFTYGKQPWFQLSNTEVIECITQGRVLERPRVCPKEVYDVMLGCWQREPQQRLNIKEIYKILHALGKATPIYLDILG

CN(C)C(=O)Cn1cc(-c2nc([C@@](C)(c3ccc(-c4cnc(N)nc4)cc3)C3CC3)no2)cn1 [BI 665915]
inactive: [1] 97% | [2] 98.5% | [3] 93% | [4] 100% | [5] 96% | [6] 102% | [7] 98% | [8] 85% | [9] 98% | [10] 100%
